Assay results reported in patent US20060122181A1, “Heteroaromatic pentacyclic compound and medicinal use thereof” (Japan Tobacco Inc., priority 2003, published 2006).

| SMILES | melting point |
| --- | --- |
| CCCC(CCC)c1ccc(N(Cc2ccc3nc(-c4csc(CN(CC(=O)O)Cc5nc(C(C)(C)C)cs5)n4)oc3c2)C(C)C)cc1 [Example 1-138] | 98 to 100 °C |
| CCCC(CCC)c1ccc(OCc2ccc(-c3csc(CN(CC(=O)O)Cc4ncc(C(C)(C)C)o4)c3)cc2)cc1 [Example 4-29] | 120.5 °C |
| CCCC(CCC)c1ccc(OCc2ccc(-c3ccc(CN(CC(=O)O)CC(=O)Nc4ccccc4)s3)cc2)cc1 [Example 4-10] | 122 to 124 °C |
| CCC(CC)c1ccc(N(Cc2ccc(-c3csc(COc4ccc(C(=O)O)cc4)n3)cc2)C(C)C)cc1 [Example 1-2] | 219 °C |
| CN(Cc1ccc(CC(C)(C)C)cc1)c1ccc(-c2csc(CN3Cc4ccccc4CC3C(=O)O)n2)cc1 (stereo not drawn) [Example 3-74] | 175 to 177 °C |
| CCCC(CCC)N(Cc1ccc(-c2csc(COc3cccc(C(=O)O)c3)n2)cc1)c1ccc(C(C)C)cc1 [Example 1-10] | 127 to 129 °C |
| CCCC(CCC)c1ccc(N(Cc2ccc3nc(-c4csc(COc5cncc(C(=O)O)c5)n4)oc3c2)C(C)C)cc1 [Example 1-140] | 135 to 138 °C |
| CCCC(CCC)c1ccc(OCc2ccc(-c3csc(CN(CC(=O)O)C(=O)COc4ccc(C(C)C)cc4)n3)cc2)cc1 [Example 1-135] | 192 to 194 °C |
| CCCC(CCC)c1ccc(OCc2ccc(-c3csc(CN(CC(=O)O)Cc4cn(C)c5ccccc45)c3)cc2)cc1 [Example 4-86] | 170.5 to 171.9 °C |
| CCCC(CCC)c1ccc(OCc2ccc(-c3csc(CN(CC(=O)O)CC(=O)Nc4ccccn4)n3)cc2)cc1 [Example 1-100] | 133.5 °C |
| CN(Cc1ccc(C(=O)O)cc1)c1nc(-c2ccc(CNc3ccc(C4CCCCC4)cc3)cc2)cs1 [Example 1-17] | 206 to 210 °C |
| CC(C)CN(Cc1ccc(-c2csc(CN(CC(=O)O)C(=O)Nc3ccccc3)n2)cc1)c1ccc(C(C)(C)C)cc1 [Example 1-27] | 119 °C |
| CCCC(CCC)c1ccc(COc2ccc(-c3csc(CN4CCN(c5ccc(C(=O)O)cc5)CC4)n3)cc2)cc1 [Example 3-127] | 241 to 243 °C |
| CCCC(CCC)N(Cc1ccc(-c2csc(COc3ccc(C(=O)O)cn3)n2)cc1)c1ccc(C(C)C)cc1 [Example 1-6] | 141 to 143 °C |
| CC(C)CN(Cc1ccc(-c2csc(COc3cncc(C(=O)O)c3)n2)cc1)c1ccc(C(C)C)cc1 [Example 1-8] | 196 to 197 °C |
| CCC(CC)c1ccc(N(Cc2ccc(-c3ccc(CN(CC(=O)O)Cc4nc5ccccc5[nH]4)s3)cc2)C(C)C)cc1 [Example 4-21] | 142 to 146 °C |
| CCCC(CCC)c1ccc(OCc2ccc(-c3csc(CN(CC(=O)O)CC(=O)Nc4ccc(N(C)C)cc4)n3)cc2)cc1 [Example 1-97] | 192.5 °C |
| CC(C)CN(Cc1nc(-c2ccc(N(C)Cc3ccc(C4CCCCC4)cc3)cc2)cs1)S(=O)(=O)CC(=O)O [Example 3-104] | 104 to 110 °C |
| CCC(CC)c1ccc(N(Cc2ccc(-c3csc(CSc4ccc(C(=O)O)cc4)n3)cc2)C(C)C)cc1 [Example 1-13] | 132.5 °C |
| CCC(CC)c1ccc(N(Cc2ccc(-c3csc(CNc4cccc(C(=O)O)c4)n3)cc2)C(C)C)cc1 [Example 1-92] | 159 to 160 °C |
| CCCC(CCC)c1ccc2c(c1)nc(-c1csc(COc3ccc(C(=O)O)cc3)n1)n2Cc1cccc(C)n1 [Example 1-159] | 113 to 116 °C |

| SMILES | melting point |
| --- | --- |
| CCCC(CCC)c1ccc(OCc2ccc(-c3csc(CN(CCN)C(=O)c4ccc(C(=O)O)cn4)n3)cc2)cc1.Cl | 227 to 229 °C |
| CCCC(CCC)c1ccc(N(Cc2ccc(-c3ccc(CN(CC(=O)O)Cc4nc5ccccc5[nH]4)s3)cc2)C(C)C)cc1 [Example 4-22] | 144 to 150 °C |
| CCC(CC)c1ccc(N(Cc2ccc(-c3csc(CN4Cc5ccccc5CC4C(=O)O)n3)cc2)C(C)C)cc1 (stereo not drawn) [Example 1-32] | 127.5 °C |
| CCCC(CCC)N(Cc1ccc(-c2csc(COc3cncc(C(=O)O)c3)n2)cc1)c1ccc(C(C)C)cc1 [Example 1-7] | 184 to 185 °C |
| CC(C)CCN(CC(=O)O)Cc1nc(-c2ccc(N(C)Cc3ccc(CC(C)C)cc3)cc2)cs1 [Example 3-93] | 155 to 156 °C |
| CN(Cc1nc(-c2ccc(N(C)Cc3ccc(C4CCCCC4)cc3)cc2)cs1)C(=O)c1ccc(C(=O)O)cc1 [Example 3-107] | 162 to 164 °C |
| CC(C)Cc1ccc(CN(C)c2ccc(-c3csc(CN(CC(=O)O)Cc4ccc(Cl)cc4)n3)cc2)cc1 [Example 3-47] | 153 to 157 °C |
| CCCC(CCC)c1ccc(OCc2ccc(-c3csc(CN4Cc5ccccc5C[C@@H]4C(=O)O)n3)cc2)cc1 [Example 1-47] | 77 to 82 °C |
| O=C(O)c1cccc(C2CCN(Cc3nc(-c4ccc(OCc5ccc(Cl)c(Cl)c5)cc4)cs3)CC2)c1 [Example 1-173] | 197 to 199 °C |
| CC(C)c1ccc(CN(c2ccc(-c3csc(CN(CC(=O)O)Cc4ccc(C(C)(C)C)cc4)n3)cc2)C(C)C)cc1 [Example 3-46] | 82 to 87 °C |
| O=C(O)CN(CC1CCCCC1)c1nc(-c2nc3ccc(OCc4ccc(Cl)c(Cl)c4)cc3o2)cs1 [Example 3-110] | 198 to 200 °C |
| CCCC(CCC)c1ccc(OCc2ccc(-c3csc(CN(C)S(=O)(=O)CCCC(=O)O)n3)cc2)cc1 [Example 1-51] | 103.3 to 106.3 °C |
| CCC(CC)c1ccc(COc2ccc(-c3csc(CN(CC(=O)O)C(=O)c4ccc(C)cc4)n3)cc2)cc1 [Example 3-23] | 142 to 144 °C |
| CC(C)c1ccc(CN(CC(=O)O)Cc2nc(-c3ccc(N(Cc4ccc(C(C)C)cc4)C(C)C)cc3)cs2)cc1 [Example 3-45] | 77 to 82 °C |
| CN(Cc1ccc(C2CCCCC2)cc1)c1ccc(-c2csc(CNC(C(=O)O)c3ccccc3)n2)cc1 (stereo not drawn) [Example 3-77] | 183 to 186 °C |
| CCCC(CCC)c1ccc(CN(C)c2ccc(-c3csc(COc4cncc(C(=O)O)c4)n3)cc2)cc1 [Example 3-94] | 178 to 181 °C |
| CCCC(CCC)c1ccc(OCc2ccc(-c3csc(CN(CC(=O)O)C(=O)COc4ccccc4)n3)cc2)cc1 [Example 1-129] | 143 to 145 °C |
| CC(C)Cc1ccc(CN(C)c2ccc(-c3csc(CN4Cc5ccccc5CC4C(=O)O)n3)cc2)cc1 (stereo not drawn) [Example 3-72] | 168 to 170 °C |
| CCCC(CCC)c1ccc(N(C)Cc2ccc(-c3csc(COc4ccc(C(=O)O)cc4)n3)cc2)cc1 [Example 1-5] | 161 to 163 °C |
| CN(Cc1ccccc1)c1ccc(-c2csc(CN(CC(=O)O)C(=O)Cc3csc4ccccc34)n2)cc1 [Example 3-56] | 186 to 188 °C |
| CC(C)CN(Cc1ccc(-c2csc(CN(CC(=O)O)Cc3ccccc3)n2)cc1)c1ccc(Cl)cc1 [Example 1-24] | 152 °C |

| SMILES | melting point |
| --- | --- |
| CCCC(CCC)c1ccc(N(Cc2ccc(-c3csc(COc4cc(C(=O)O)ccc4NC(=O)CNC)n3)cc2)C(C)C)cc1 [Example 1-126] | 210 to 212 °C |
| CCCC(CCC)c1ccc(N(Cc2ccc(-c3csc(CN(CC(=O)O)S(=O)(=O)N(C)c4ccccc4)n3)cc2)C(C)C)cc1 [Example 1-116] | 146 to 148 °C |
| CN(CCc1ccc(CC(C)(C)C)cc1)c1ccc(-c2csc(CN(CC(=O)O)Cc3ccccc3)n2)cc1 [Example 3-31] | 133 to 134 °C |
| CN(Cc1ccccc1)c1ccc(-c2csc(CN(CC(=O)O)Cc3ccc(Cl)c(Cl)c3)n2)cc1 [Example 3-51] | 69 to 72 °C |
| CCCC(CCC)c1ccc(N(Cc2ccc(-c3csc(COc4cncc(C(=O)O)c4)n3)cc2)C(C)C)cc1.[Na+] [Example 1-68] | 185 °C (dec.) |
| CCC(CC)N(Cc1ccc(-c2csc(CN3Cc4ccccc4C[C@H]3C(=O)O)n2)cc1)c1ccc(C(C)C)cc1 [Example 1-35] | 110 to 113 °C |
| CC(C)CN(Cc1ccc(-c2csc(CN(CC(=O)O)C(=O)N3CCOCC3)n2)cc1)c1ccc(C(C)(C)C)cc1 [Example 1-59] | 138 °C |
| CN(C[C@H]1CC[C@H](c2ccc(C(C)(C)C)cc2)CC1)c1ccc(-c2csc(CN(CC(=O)O)Cc3ccccc3)n2)cc1 [Example 3-28] | 192 to 195 °C |
| CCCC(CCC)c1ccc(NC(=O)c2ccc(-c3csc(CN(CC(=O)O)Cc4ccccc4)n3)cc2)cc1 [Example 1-54] | 201 to 202 °C |
| CC(C)CN(Cc1ccc(-c2csc(CN(CC(=O)O)C(=O)c3ccccc3)n2)cc1)c1ccc(C(C)(C)C)cc1 [Example 1-28] | 147 °C |
| O=C(O)c1cccc(C2CCN(Cc3nc(-c4ccc(OCc5cc(C(F)(F)F)cc(C(F)(F)F)c5)cc4)cs3)CC2)c1 [Example 1-174] | 222 to 228 °C |
| CCC(CC)c1ccc(N(Cc2ccc(-c3csc(COc4cncc(C(=O)O)c4)c3)cc2)C(C)C)cc1 [Example 4-4] | 160 °C |
| CN(Cc1ccc(C2CCCCC2)cc1)c1ccc(-c2csc(CNS(=O)(=O)c3ccc(C(=O)O)cc3)n2)cc1 [Example 3-97] | 202 to 203 °C |
| CCCC(CCC)c1ccc(Cn2c(-c3csc(CN4CCC(c5ccc(C(=O)O)cc5)CC4)n3)nc3ccccc32)cc1 [Example 1-171] | 208.5 to 209.8 °C |
| CCCC(CCC)c1ccc(OCc2ccc(-c3ccc(CN(CC(=O)O)Cc4nc5ccccc5[nH]4)s3)cc2)cc1 [Example 4-8] | 173 to 175 °C |
| CCCC(CCC)c1ccc(OCc2ccc(-c3csc(Cn4nc(C(C)(C)C)cc4C(=O)O)n3)cc2)cc1 [Example 1-179] | 123 to 125 °C |
| CN(Cc1ccccc1)c1ccc(-c2csc(CN(CC(=O)O)Cc3ccccc3Cl)n2)cc1 [Example 3-50] | 132 to 134 °C |
| CCCC(CCC)c1ccc(COc2ccc(-c3csc(COc4cncc(C(=O)O)c4)n3)c(C)c2)cc1 [Example 3-114] | 148 to 150 °C |
| CN(Cc1ccc(C2CCCCC2)cc1)c1ccc(-c2csc(CN(C)S(=O)(=O)CC(=O)O)n2)cc1 [Example 3-102] | 178 to 183 °C |
| CCCC(CCC)c1ccc(OCc2ccc(-c3csc(CN(CC(=O)O)Cc4nc(C(C)(C)C)cs4)c3)cc2)cc1 [Example 4-15] | 166 °C |
| CCCC(CCC)c1ccc(COc2ccc(-c3csc(CN(CC(=O)O)C(=O)c4ccc(OC)cc4)n3)cc2)cc1 [Example 3-24] | 99 to 101 °C |
